Reference: patent US8946446B2, “Pyrrolo sulfonamide compounds for modulation of orphan nuclear receptor RAR-related orphan receptor-γ (ROR-γ, NR1F3) activity and for the treatment of chronic inflammatory and autoimmune diseases” (Phenex Pharmaceuticals AG, priority 2011, dated 2015)

Target: T1, RORγ ligand binding domain (LBD) (Homo sapiens, UniProt P51449)
T1 construct: made in house; host or cells: E. coli BL-21 (BL3), vector pDEST15
T1 sequence (P51449 269-508 limits assumed): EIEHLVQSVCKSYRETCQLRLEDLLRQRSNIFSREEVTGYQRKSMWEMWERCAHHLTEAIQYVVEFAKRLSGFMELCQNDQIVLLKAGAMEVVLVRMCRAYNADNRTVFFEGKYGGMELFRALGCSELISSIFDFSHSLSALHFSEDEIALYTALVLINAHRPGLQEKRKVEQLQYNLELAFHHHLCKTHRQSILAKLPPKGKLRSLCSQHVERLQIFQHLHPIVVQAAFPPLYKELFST
Test: TR-FRET Activity Assay (ligand sensing, RORγ-LBD / coactivator peptide interaction)
Type: biochemical
Settings: read-out: RORγ activity in the TR-FRET Activity Assay (IC50 FRET), Group

| Structure (SMILES) | IC50 |
| --- | --- |
| Cc1c(S(=O)(=O)NCCN2CCOCC2)cc(-c2cc(C(C)(C)C)cc(C(C)(C)C)c2)n1CC1CCCCC1 [2/6] | < 0.5 µM |
| Cc1c(S(N)(=O)=O)cc(-c2cc(C(C)(C)C)cc(C(C)(C)C)c2)n1CC1CCCCC1 [Example 1, 1-(Cyclohexylmethyl)-5-(3,5-di-tert-butylphenyl)-2-methyl-1H-pyrrole-3-sulfonamide] | < 0.5 µM |
| Cc1c(S(N)(=O)=O)cc(-c2ccc(N3CCOCC3)c(C(C)(C)C)c2)n1CC1CCCCC1 [12/34] | 0.5 to 2 µM |
| Cc1c(S(N)(=O)=O)cc(-c2cc(C(=O)N(C)C(C)(C)C)cc(C(F)(F)F)c2)n1CC1CCCCC1 [13/14] | > 2 µM |
| Cc1c(S(N)(=O)=O)cc(-c2cc(C(C)(C)C)nc(C(F)(F)F)c2)n1CC1CCCCC1 [1/23] | 0.5 to 2 µM |
| Cc1c(S(N)(=O)=O)cc(-c2cc(OCCCN3CCOCC3)nc(C(C)(C)C)c2)n1CC1CCCCC1 [17/3] | > 2 µM |
